# Results from PubChem BioAssay (NCI).
# “And” between values parts separate entries of the source, which are not always exact repeats. Identical values can stand only once.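 Growth conditions: 96-well plates. Treatment: test compound, 48 hours, 5 concentrations. Analysis: linear interpolation between bracketing concentrations; unreached endpoints set to highest concentration. GI50 = concentration required for 50% inhibition of growth. TGI: total growth inhibition.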
# Tests used:
# Experiment in all cases: NCI tumour cell line growth inhibition, 48 h
# [1] = system: SNB-19 CNS
# [2] = system: HCT-15 colon
# [3] = system: OVCAR-4 ovarian
# [4] = system: HCT-116 colon
# [5] = system: EKVX NSCLC
# [6] = system: HS 578T breast
# [7] = system: HL-60(TB) leukemia
# [8] = system: SR leukemia
# [9] = system: NCI-H522 lung
# [10] = system: SK-MEL-28 melanoma
# [11] = system: PC-3 prostate
# [12] = system: SW-620 colon
# [13] = system: M14 melanoma
# [14] = system: SN12C renal
# [15] = system: MDA-MB-231 breast
# [16] = system: HOP-62 NSCLC
# [17] = system: ACHN renal
# [18] = system: NCI/ADR-RES ovarian
# [19] = system: DU-145 prostate
# [20] = system: SF-268 CNS
# [21] = system: HT29 colon
# [22] = system: U251 CNS
# [23] = system: NCI-H226 lung
# [24] = system: RXF 393 renal
# [25] = system: SK-OV-3 ovarian
# [26] = system: A549 NSCLC
# [27] = system: HCC-2998 colon
# [28] = system: IGROV1 ovarian
# [29] = system: OVCAR-8 ovarian
structure (smiles),measurement,setting,value
CO/N=C/C=C\C(=O)N/C=C/C[C@H]1/C=C/[C@H](O)/C=C\C=C\c2cccc(O)c2C(=O)O1,GI50,[1],2810 nM and 3470 nM
same,TGI,[1],> 100000 nM
same,GI50,[2],62.4 nM and 44.7 nM
same,TGI,[2],9700 nM and 7340 nM
same,GI50,[3],17300 nM and 2740 nM
same,TGI,[3],> 100000 nM
same,GI50,[4],< 10 nM and 20.7 nM
same,TGI,[4],12800 nM and 12900 nM
same,GI50,[5],189 nM and 467 nM
same,TGI,[5],> 100000 nM
same,GI50,[6],454 nM and 199 nM
same,TGI,[6],> 100000 nM
same,GI50,[7],20.8 nM and 37.3 nM
same,GI50,[8],< 10 nM
same,TGI,[8],13800 nM and > 100000 nM
same,GI50,[9],17.6 nM and 31.1 nM
same,TGI,[9],14300 nM and 7120 nM
same,GI50,[10],303 nM and 309 nM
same,TGI,[10],13400 nM and 8660 nM
same,GI50,[11],94.6 nM and 47.7 nM
same,TGI,[11],81400 nM and > 54900 nM
same,GI50,[12],43.3 nM and 62.8 nM
same,TGI,[12],12400 nM and 11300 nM
same,GI50,[13],< 10 nM and 15.2 nM
same,TGI,[13],119 nM and 136 nM
same,GI50,[14],< 17.6 nM and 16.5 nM
same,TGI,[14],> 72900 nM
same,GI50,[15],< 10 nM
same,TGI,[15],6640 nM
same,GI50,[16],266 nM and 65.9 nM
same,GI50,[17],39 nM and 54.2 nM
same,TGI,[17],15700 nM and 15200 nM
same,GI50,[18],139 nM and 77.1 nM
same,TGI,[18],> 100000 nM
same,GI50,[19],81.6 nM and 41.3 nM
same,TGI,[19],> 54000 nM and 22900 nM
same,GI50,[20],204 nM and 137 nM
same,TGI,[20],> 100000 nM and 33800 nM
same,GI50,[21],< 10 nM and 39.5 nM
same,TGI,[21],11200 nM and > 33700 nM
same,GI50,[22],100 nM and 28.7 nM
same,TGI,[22],62100 nM and 14700 nM
same,GI50,[23],829 nM and 1310 nM
same,TGI,[23],13300 nM and 25800 nM
same,GI50,[24],931 nM and 108 nM
same,TGI,[24],34500 nM and 12900 nM
same,TGI,[25],> 100000 nM
same,GI50,[26],111 nM and 82.2 nM
same,TGI,[26],> 100000 nM
same,GI50,[27],430 nM and 208 nM
same,TGI,[27],31000 nM and 7540 nM
same,GI50,[28],< 10 nM and 12.9 nM
same,TGI,[28],> 49000 nM and 30900 nM
same,GI50,[29],19.1 nM and 33 nM
same,TGI,[29],> 100000 nM
